In patent publication EP1484329A1, “Indole derivatives with apoptosis inducing activity” (Zentaris GmbH, priority 2003, dated 2004):
Values after ≈ are worked out from the molar mass of the structure shown. Where two headings read alike, the source gives them in different places.

How the values were obtained:
[1] = tested on: A431; test: XTT proliferation assay, A431; assay type: cell-based, human; details: Homo sapiens, read-out: XTT Proliferationsassay, EC50 A431
Source text: (§1) Die Substanzen 1,2, 4-6 wurden in einem Proliferationstest an etablierten Tumorzelllinien auf ihre anti-proliferative Aktivität hin untersucht (D.A. Scuderio et al. Cancer Res. 1988, 48, 4827-4833). Der verwendete Test bestimmt die zelluläre Dehydrogenase-Aktivität und ermöglicht eine Bestimmung der Zellvitalität und indirekt der Zellzahl. Bei den verwendeten Zelllinien handelt es sich um die humane Cervixkarzinom Zelllinie KB/HeLa (ATCC CCL17), die ovariale Adenokarzinomzelllinie SKOV-3 (ATCC HTB77), die humane Glioblastom Zelllinie SF-268 (NCI 503138) und die Lungenkarzinom Zelllinie NCI-H460 (NCI 503473). Des weiteren wurde zur Untersuchung der Zellzyklus-spezifischen Wirkung der Substanz ein RKOp27 Zellsystem verwendet (M. Schmidt et al. Oncogene19(20):2423-9, 2000). Bei RKO handelt es sich um eine humane Kolonkarzinomlinie, in der der Zellzyklusinhibitor p27 ^kip1 mittels des Ecdyson Expressionssystems induziert zur Expression gebracht und zu einem Zellzyklusarrest spezifisch in G2 geführt werden kann. Eine unspezifisch wirkende Substanz hemmt die Proliferation unabhängig davon, ob die RKO Zelle in G1 oder G2 arretiert ist oder nicht. Zellzyklus-spezifische Substanzen wie beispielsweise Tubulininhibitoren sind hingegen nur dann zytotoxisch, wenn Zellen nicht arretiert sind und der Zellzyklus durchlaufen wird. In Tabelle 1 ist die zytotoxische bzw. wachstumshemmende Aktivität der beschriebenen Verbindungen mit / ohne Expression von p27^kip1gezeigt. Die getesteten Verbindungen zeigten im induzierten Zustand von p27^kiP1 keine zytotoxische Aktivität. Die Ergebnisse zeigen eine sehr potente Hemmung der Proliferation ausgewählter Tumorzelllinien durch die genannten Substanzen. Tabelle 1:
(§2) Zur weiteren Charakterisierung wurden die Substanzen 1-6 an einem Panel von 7 humanen Tumorzelllinien auf ihre anti-proliferative Wirkung hin untersucht. Bei den untersuchten Zelllinien handelt es sich um die humanen Glioma Zelllinien A172 (ATCC CRL-1620) und U118 (ATCC HTB-15), die humane Lungenkarzinom Zelllinie A549, das humane epidermoide Karzinom A431 (ATCC CRL-2592), die humanen Prostatakarzinom Zelllinien DU145 (ATCC HTB-81) und PC3 (ATCC CRL-1435) und die humane Kolon Adenokarzinomzelllinie HT29 (ATCC HTB-38). Es handelt sich hierbei um sehr gut charakterisierte, etablierte Zelllinien, die von ATCC, ECACC bzw. NCI erhalten und in Kultur genommen wurden. Die in Tab. […]

[2] = tested on: U118MG; test: XTT proliferation assay, U118MG; assay type: cell-based; details: Homo sapiens, U-118-MG; read-out: XTT Proliferationsassay, EC50 U118MG
Source text: as §1, §2

[3] = tested on: A172; test: XTT proliferation assay, A172; assay type: cell-based, human; details: Homo sapiens, read-out: XTT Proliferationsassay, EC50 A172
Source text: as §1, §2

[4] = tested on: KB/HeLa Zellen; test: Cell cycle analysis (G2/M arrest); assay type: cell-based; details: Homo sapiens, read-out: EC50 in nM (50% cells in G2/M)
Protocol: Für die Zellzyklusanalyse wurden KB/HeLa Zellen mit den Testsubstanzen in unterschiedlichen Konzentrationen (0.1-1000 nM) 24 Stunden bei 37°C behandelt.
Der prozentuale Anteil der in der G2/M Phase des Zellzyklus arrettierten Zellen nach Behandlung mit Referenz- oder ausgewählten Testsubstanzen ist in der nachfolgenden Tabelle 5 dargestellt. Die Ergebnisse wurden mit einer speziellen Analysesoftware (ModFit™) ausgewertet.

[5] = tested on: LT12; test: XTT proliferation assay, LT12 (wild type); assay type: cell-based
Source text: as §1
(§3) Zur weiteren Charakterisierung wurden die Substanzen 1,2,4-6 gegenüber multi drug resistenten Zelllinien im Vergleich zu den nicht-resistenten Wildtypzelllinien untersucht.
(§4) Bei den untersuchten Zelllinien handelt es sich um die murine L1210, die akute myeloische Leukaemie Zelllinie LT12 und um die resistenten Linien L1210/mdr und LT12/mdr. Außerdem wurden die murine P388 Zelllinie (methyl-cholanthreneinduced lymphoid neoplasm) sowie die Doxorubicin-resistente P388 als Testsysteme herangezogen.

[6] = tested on: NCI-H460; test: XTT proliferation assay, NCI-H460; assay type: cell-based; details: Homo sapiens, read-out: XTT Proliferationsassay, EC50 NCI-H460
Source text: as §1, with “Substanzen.” for “Substanzen. Tabelle 1:”

[7] = tested on: LT12mdr; test: XTT proliferation assay, LT12mdr (resistant); assay type: cell-based; details: read-out: XTT Proliferationsassay, EC50 LT12mdr
Source text: as §1, §3, §4

[8] = tested on: SKOV-3; test: XTT proliferation assay, SKOV-3; assay type: cell-based; details: Homo sapiens, SK-OV-3; read-out: XTT Proliferationsassay, EC50 SKOV3
Source text: as §1, with “Substanzen.” for “Substanzen. Tabelle 1:”

[9] = tested on: L1210VCR; test: XTT proliferation assay, L1210VCR (resistant); assay type: cell-based, murine
Source text: as §1, §3, §4

[10] = tested on: SF-268; test: XTT proliferation assay, SF-268; assay type: cell-based; details: Homo sapiens, read-out: XTT Proliferationsassay, EC50 SF-268
Source text: as §1, with “Substanzen.” for “Substanzen. Tabelle 1:”

[11] = tested on: P388; test: XTT proliferation assay, P388 (wild type); assay type: cell-based, murine
Source text: as §1, §3, §4

[12] = tested on: KB/HeLa; test: XTT proliferation assay, KB/HeLa; assay type: cell-based; details: Homo sapiens, read-out: XTT Proliferationsassay, EC50 KB/Hela
Source text: as §1, with “Substanzen.” for “Substanzen. Tabelle 1:”

[13] = tested on: L1210; test: XTT proliferation assay, L1210 (wild type); assay type: cell-based, murine
Source text: as §1, §3, §4

O=C(Nc1ccc2ncccc2c1)C(=S)c1cn(Cc2ccc(Cl)cc2)c2ccccc12 [Verbindung 4, 2-[1-(4-Chlorbenzyl)-1 H-indol-3-yl]-N-chinolin-6-yl-2-thioxoacetamid] gave an EC50 ([1]; A-431, A431) of 0.016 µg/mL (≈ 0.0351 µM), an EC50 [2] of 0.03 µg/mL (≈ 0.0658 µM) and an EC50 ([3]; A 172, A172) of 0.043 µg/mL (≈ 0.0943 µM).
O=C(Nc1ccc2ncccc2c1)C(=O)c1cn(Cc2ccc(Cl)cc2)c2ccccc12 [Verbindung 2, 2-[1-(4-Chlor-benzyl)-1 H-indol-3-yl]-2-oxo-N-chinolin-6-yl-acetamid] showed an EC50 ([4]; HeLa, 24 h) of 52.3 nM, an EC50 ([5]; Rattus norvegicus, LT12, read-out: XTT Proliferationsassay, EC50 LT12) of 0.044 µg/mL (≈ 0.1 µM) and an EC50 ([1]; A-431) of 0.014 µg/mL (≈ 0.0318 µM). The EC50 [6] was 0.054 µg/mL (≈ 0.123 µM), the EC50 [7] was 0.063 µg/mL (≈ 0.143 µM) and the EC50 [8] was 0.018 µg/mL (≈ 0.0409 µM). The EC50 [2] was 0.022 µg/mL (≈ 0.05 µM), the EC50 ([9]; Mus musculus, read-out: XTT Proliferationsassay, EC50 L1210VCR) was 0.078 µg/mL (≈ 0.177 µM) and the EC50 ([3]; A 172) was 0.024 µg/mL (≈ 0.0546 µM). For the same compound, the EC50 [10] was 0.027 µg/mL (≈ 0.0614 µM), the EC50 ([11]; Mus musculus, P388, read-out: XTT Proliferationsassay, EC50 P388) was 0.037 µg/mL (≈ 0.0841 µM) and the EC50 [12] was 0.027 µg/mL (≈ 0.0614 µM). The EC50 ([13]; Mus musculus, L1210, read-out: XTT Proliferationsassay, EC50 L1210) was 0.074 µg/mL (≈ 0.168 µM).
Compound O=C(Nc1cnc2nccnc2c1)C(=O)c1cn(Cc2ccc(Cl)cc2)c2ccccc12 [Verbindung 5, 2-[1-(4-Chlor-benzyl)-1H-indol-3-yl]-2-oxo-N-pyrido[2,3-b]pyrazin-7-yl-acetamid] has an EC50 ([4]; KB/HeLa, 24 h at 37°C, 0.1-1000 nM) of 31.9 nM, an EC50 ([5]; Rattus norvegicus, LT12; read-out: XTT Proliferationsassay, EC50 LT12) of 0.015 µg/mL (≈ 0.0339 µM) and an EC50 ([1]; A-431, A431) of 0.011 µg/mL (≈ 0.0249 µM). For the same compound, the EC50 [6] was 0.046 µg/mL (≈ 0.104 µM), the EC50 [7] was 0.017 µg/mL (≈ 0.0385 µM) and the EC50 [8] was 0.029 µg/mL (≈ 0.0656 µM). The EC50 [2] was 0.013 µg/mL (≈ 0.0294 µM), the EC50 ([9]; Mus musculus; read-out: XTT Proliferationsassay, EC50 L1210VCR) was 0.021 µg/mL (≈ 0.0475 µM) and the EC50 ([3]; A 172, A172) was 0.019 µg/mL (≈ 0.043 µM). The EC50 [10] was 0.042 µg/mL (≈ 0.095 µM), the EC50 ([11]; Mus musculus, P388; read-out: XTT Proliferationsassay, EC50 P388) was 0.012 µg/mL (≈ 0.0272 µM) and the EC50 [12] was 0.045 µg/mL (≈ 0.102 µM). It also gave an EC50 ([13]; Mus musculus, L1210; read-out: XTT Proliferationsassay, EC50 L1210) of 0.018 µg/mL (≈ 0.0407 µM).
